Source: the NIST ThermoML archive (doi:10.1021/je0302001)
Numbers after ± are expanded uncertainties.

Test: mn = molality of the nth substance listed, in mol/kg
Details: 101.3 kPa, Liquid; for viscosity: Capillary tube (Ostwald / Ubbelohde) method

O=[N+]([O-])[O-].O=[N+]([O-])[O-].[Zn+2] [nitric acid, zinc salt] + O
Details | mass density [kg/m3] | speed of sound [m/s] | viscosity [mPa·s]
313.15 K, m1 = 0.3388 | – | 1540.3 ± 4.1 | –
313.15 K, m1 = 0.6111 | – | 1548.3 ± 4.1 | –
313.15 K, m1 = 0.6405 | – | 1550.9 ± 4.1 | –
313.15 K, m1 = 1.113 | – | 1571.8 ± 4.2 | –
313.15 K, m1 = 1.258 | – | 1580.9 ± 4.2 | –
313.15 K, m1 = 1.551 | – | 1595.3 ± 4.2 | –
313.15 K, m1 = 1.906 | – | 1613.8 ± 4.3 | –
313.15 K, m1 = 2.145 | – | 1624.5 ± 4.3 | –
313.15 K, m1 = 2.29 | – | 1630.2 ± 4.3 | –
313.15 K, m1 = 2.292 | – | 1631.4 ± 4.3 | –
313.15 K, m1 = 2.344 | – | 1634.6 ± 4.3 | –
313.15 K, m1 = 2.91 | – | 1659.9 ± 4.4 | –
313.15 K, m1 = 3.472 | – | 1683.4 ± 4.4 | –
313.15 K, m1 = 4.075 | – | 1702.8 ± 4.5 | –
313.15 K, m1 = 4.817 | – | 1727.1 ± 4.6 | –
313.15 K, m1 = 5.224 | – | 1733.1 ± 4.6 | –
313.15 K, m1 = 5.797 | – | 1742.3 ± 4.6 | –
313.15 K, m1 = 6.34 | – | 1747.6 ± 4.6 | –
313.15 K, m1 = 6.89 | – | 1751.5 ± 4.6 | –
313.15 K, m1 = 7.349 | – | 1751.7 ± 4.7 | –
313.3 K, m1 = 2.145 | 1277.4 ± 1 | – | –
313.55 K, m1 = 0.1329 | 1011.2 ± 0.8 | – | –
313.85 K, m1 = 0.6111 | 1080.1 ± 0.8 | – | –
313.95 K, m1 = 1.906 | 1248.8 ± 1 | – | –
313.95 K, m1 = 2.29 | 1293.8 ± 1.1 | – | –
314 K, m1 = 5.8 | 1619.4 ± 1.5 | – | –
314.1 K, m1 = 0.0875 | 1004.4 ± 0.8 | – | –
314.15 K, m1 = 7.764 | 1746 ± 1.7 | – | –
314.2 K, m1 = 2.344 | 1300 ± 1.1 | – | –
314.25 K, m1 = 0.6405 | 1084 ± 0.8 | – | –
314.35 K, m1 = 0.2466 | 1027.8 ± 0.8 | – | –
314.35 K, m1 = 7.349 | 1722 ± 1.7 | – | –
314.45 K, m1 = 0.3388 | 1041 ± 0.8 | – | –
314.6 K, m1 = 2.91 | 1362 ± 1.1 | – | –
314.7 K, m1 = 4.817 | 1542.3 ± 1.4 | – | –
314.95 K, m1 = 1.551 | 1204.4 ± 1 | – | –
314.95 K, m1 = 4.075 | 1477.2 ± 1.3 | – | –
315.05 K, m1 = 1.113 | 1147.9 ± 0.9 | – | –
315.05 K, m1 = 6.89 | 1692.9 ± 1.6 | – | –
315.1 K, m1 = 3.472 | 1419.3 ± 1.2 | – | –
315.9 K, m1 = 6.34 | 1655.7 ± 1.6 | – | –
315.95 K, m1 = 0.1329 | 1010.2 ± 0.8 | – | –
315.95 K, m1 = 7.349 | 1720.2 ± 1.7 | – | –
316.15 K, m1 = 0.6111 | 1079 ± 0.8 | – | –
316.2 K, m1 = 2.292 | 1292.7 ± 1.1 | – | –
316.4 K, m1 = 0.6405 | 1082.8 ± 0.8 | – | –
316.6 K, m1 = 5.224 | 1573.5 ± 1.4 | – | –
316.75 K, m1 = 0.0875 | 1003.3 ± 0.8 | – | –
316.8 K, m1 = 0.2466 | 1026.7 ± 0.8 | – | –
316.8 K, m1 = 0.3388 | 1039.9 ± 0.8 | – | –
316.85 K, m1 = 1.258 | 1166.1 ± 0.9 | – | –
316.9 K, m1 = 1.551 | 1203.1 ± 1 | – | –
317.15 K, m1 = 2.145 | 1274.9 ± 1.1 | – | –
317.25 K, m1 = 1.113 | 1146.8 ± 0.9 | – | –
317.5 K, m1 = 5.8 | 1616 ± 1.5 | – | –
317.6 K, m1 = 7.764 | 1742.3 ± 1.7 | – | –
317.65 K, m1 = 7.349 | 1718.4 ± 1.7 | – | –
317.8 K, m1 = 2.29 | 1291.2 ± 1.1 | – | –
317.9 K, m1 = 1.906 | 1246.3 ± 1 | – | –
317.9 K, m1 = 2.344 | 1297.2 ± 1.1 | – | –
318.15 K, m1 = 0.0875 | – | 1540.1 ± 4.1 | –
318.15 K, m1 = 0.1329 | – | 1539.2 ± 4.1 | 0.632 ± 0.007
318.15 K, m1 = 0.2466 | – | 1542.8 ± 4.1 | 0.655 ± 0.008
318.15 K, m1 = 0.3388 | – | 1544.7 ± 4.1 | 0.676 ± 0.008
318.15 K, m1 = 0.6111 | – | 1555.1 ± 4.1 | 0.738 ± 0.009
318.15 K, m1 = 0.6405 | – | 1557.5 ± 4.1 | 0.745 ± 0.009
318.15 K, m1 = 1.113 | – | 1574.6 ± 4.2 | 0.873 ± 0.01
318.15 K, m1 = 1.258 | – | 1583.5 ± 4.2 | 0.926 ± 0.011
318.15 K, m1 = 1.551 | – | 1597.5 ± 4.2 | 1.014 ± 0.012
318.15 K, m1 = 1.906 | – | 1606.7 ± 4.3 | 1.169 ± 0.014
318.15 K, m1 = 2.145 | – | 1623.3 ± 4.3 | 1.287 ± 0.015
318.15 K, m1 = 2.29 | – | 1629.6 ± 4.3 | 1.35 ± 0.016
318.15 K, m1 = 2.292 | 1291.3 ± 1.1 | 1631.3 ± 4.3 | –
318.15 K, m1 = 2.344 | – | 1633.9 ± 4.3 | 1.366 ± 0.016
318.15 K, m1 = 2.91 | – | 1657.1 ± 4.4 | 1.68 ± 0.02
318.15 K, m1 = 3.472 | – | 1678.7 ± 4.4 | 2.088 ± 0.025
318.15 K, m1 = 4.075 | – | 1696.7 ± 4.5 | 2.588 ± 0.031
318.15 K, m1 = 4.817 | – | 1717.9 ± 4.5 | 3.383 ± 0.042
318.15 K, m1 = 5.224 | – | 1724.7 ± 4.6 | 3.857 ± 0.048
318.15 K, m1 = 5.797 | – | 1732 ± 4.6 | 4.807 ± 0.06
318.15 K, m1 = 6.34 | – | 1735.3 ± 4.6 | 5.725 ± 0.072
318.15 K, m1 = 6.89 | – | 1740.7 ± 4.6 | 6.968 ± 0.087
318.15 K, m1 = 7.349 | – | 1740.9 ± 4.6 | 8.113 ± 0.1
318.25 K, m1 = 0.6111 | 1077.9 ± 0.8 | – | –
318.25 K, m1 = 4.817 | 1539 ± 1.4 | – | –
318.3 K, m1 = 2.91 | 1359.3 ± 1.2 | – | –
318.45 K, m1 = 6.89 | 1689.4 ± 1.6 | – | –
318.6 K, m1 = 0.1329 | 1009.1 ± 0.8 | – | –
318.65 K, m1 = 4.075 | 1474.2 ± 1.3 | – | –
318.8 K, m1 = 0.6405 | 1081.7 ± 0.8 | – | –
318.8 K, m1 = 3.472 | 1416.3 ± 1.2 | – | –
318.85 K, m1 = 1.551 | 1202 ± 1 | – | –
319.05 K, m1 = 0.0875 | 1002.2 ± 0.8 | – | –
319.05 K, m1 = 0.3388 | 1038.8 ± 0.8 | – | –
319.15 K, m1 = 1.113 | 1145.7 ± 0.9 | – | –
319.2 K, m1 = 0.2466 | 1025.6 ± 0.8 | – | –
319.3 K, m1 = 6.34 | 1652.5 ± 1.6 | – | –
319.3 K, m1 = 7.764 | 1740.4 ± 1.7 | – | –
320.05 K, m1 = 5.224 | 1570.1 ± 1.5 | – | –
320.5 K, m1 = 0.6111 | 1076.8 ± 0.9 | – | –
320.6 K, m1 = 4.075 | 1472.7 ± 1.3 | – | –
320.75 K, m1 = 0.1329 | 1008.1 ± 0.8 | – | –
320.85 K, m1 = 5.8 | 1612.8 ± 1.5 | – | –
321 K, m1 = 1.258 | 1163.6 ± 0.9 | – | –
321 K, m1 = 7.349 | 1714.9 ± 1.7 | – | –
321.05 K, m1 = 2.145 | 1272.2 ± 1.1 | – | –
321.25 K, m1 = 1.113 | 1144.5 ± 0.9 | – | –
321.3 K, m1 = 0.0875 | 1001.2 ± 0.8 | – | –
321.3 K, m1 = 0.3388 | 1037.8 ± 0.8 | – | –
321.35 K, m1 = 0.2466 | 1024.5 ± 0.8 | – | –
321.4 K, m1 = 2.29 | 1288.5 ± 1.1 | – | –
321.65 K, m1 = 2.344 | 1294.6 ± 1.1 | – | –
321.7 K, m1 = 1.906 | 1243.6 ± 1 | – | –
321.75 K, m1 = 4.817 | 1535.8 ± 1.4 | – | –
321.85 K, m1 = 6.89 | 1685.8 ± 1.6 | – | –
322.05 K, m1 = 2.292 | 1288.5 ± 1.1 | – | –
322.05 K, m1 = 2.91 | 1356.4 ± 1.2 | – | –
322.4 K, m1 = 0.6111 | 1075.8 ± 0.9 | – | –
322.5 K, m1 = 3.472 | 1413.3 ± 1.3 | – | –
322.55 K, m1 = 7.764 | 1736.9 ± 1.7 | – | –
322.6 K, m1 = 6.34 | 1649 ± 1.6 | – | –
322.75 K, m1 = 1.551 | 1199.5 ± 1 | – | –
322.95 K, m1 = 0.6405 | 1079.6 ± 0.9 | – | –
323.15 K, m1 = 0.0875 | – | 1545.6 ± 4.1 | –
323.15 K, m1 = 0.1329 | – | 1544.6 ± 4.1 | 0.58 ± 0.007
323.15 K, m1 = 0.2466 | – | 1547.7 ± 4.1 | 0.601 ± 0.007
323.15 K, m1 = 0.3388 | – | 1551.5 ± 4.1 | 0.621 ± 0.007
323.15 K, m1 = 0.6111 | – | 1560.9 ± 4.1 | 0.679 ± 0.008
323.15 K, m1 = 0.6405 | – | 1561 ± 4.1 | 0.686 ± 0.008
323.15 K, m1 = 1.113 | – | 1577.8 ± 4.2 | 0.804 ± 0.009
323.15 K, m1 = 1.258 | – | 1585.2 ± 4.2 | 0.853 ± 0.01
323.15 K, m1 = 1.551 | – | 1598.3 ± 4.2 | 0.935 ± 0.011
323.15 K, m1 = 1.906 | – | 1611 ± 4.3 | 1.077 ± 0.013
323.15 K, m1 = 2.145 | – | 1622.9 ± 4.3 | 1.183 ± 0.014
323.15 K, m1 = 2.29 | – | 1630 ± 4.3 | 1.245 ± 0.015
323.15 K, m1 = 2.292 | – | 1631.1 ± 4.3 | –
323.15 K, m1 = 2.344 | – | 1628.1 ± 4.3 | 1.254 ± 0.015
323.15 K, m1 = 2.91 | – | 1651.1 ± 4.4 | 1.537 ± 0.018
323.15 K, m1 = 3.472 | – | 1675.6 ± 4.4 | 1.908 ± 0.023
323.15 K, m1 = 4.075 | – | 1690.4 ± 4.5 | 2.349 ± 0.029
323.15 K, m1 = 4.817 | – | 1707.1 ± 4.5 | 3.051 ± 0.037
323.15 K, m1 = 5.224 | – | 1716.7 ± 4.5 | 3.464 ± 0.043
323.15 K, m1 = 5.797 | – | 1723.6 ± 4.6 | 4.283 ± 0.053
323.15 K, m1 = 6.34 | – | 1724.9 ± 4.6 | 5.066 ± 0.064
323.15 K, m1 = 6.89 | – | 1729.5 ± 4.6 | 6.121 ± 0.077
323.15 K, m1 = 7.349 | – | 1729.7 ± 4.6 | 7.071 ± 0.089
324.25 K, m1 = 7.764 | 1734.9 ± 1.7 | – | –
